Source: patent US10941177B2, “2′-substituted carba-nucleoside analogs for antiviral treatment” (Gilead Sciences, Inc., priority 2012, dated 2021)
Read-outs that look alike come from different tables or passages of the source.

Columns and labels:
[1] = system: Influenza A virus PC/1/73; test: microbe, parasite or virus in culture; format: cell-based; settings: read-out: Infl A PC/1/73 EC50
[2] = system: Influenza B virus B/Lee/40; test: Normal Human Bronchial/Tracheal Epithelial Cell Influenza Infection Assay (EC50), Influenza B Lee/40; format: cell-based; settings: Normal Human Bronchial/Tracheal Epithelial Cells, 10 MOI, five day incubation, neuramidase substrate fluorescence, read-out: Infl B Lee/40 EC50
Procedure: Normal Human Bronchial/Tracheal Epithelial Cell Influenza Infection Assay (EC50)
Normal Human Bronchial/Tracheal Epithelial Cells (Lonza, Basel Switzerland) are seeded to 384-well plates at a density of 4000 cells per well in BEGM medium supplemented with growth factors (Lonza, Basel Switzerland). Medium is removed next day, and cells are washed three times with 100 μL of RPMI+1% BSA (RPMI-BSA). 30 μL of RPMI-BSA is added to cells thereafter. Compounds are 3-fold serially diluted in DMSO, and 0.4 μL of compound dilutions are stamped to plates. Influenza A virus HK/8/68 (Advanced Biotechnology Inc, Columbia, Md., 13.5 MOI), PC/1/73 (ATCC Manassas, Va., 0.3 MOI) and Influenza B virus B/Lee/40 ((ATCC Manassas, Va., 10 MOI) are added to cells in 10 μL of RPMI-BSA medium supplemented with 8 ug/mL trypsin (Worthington, Lakewood, N.J.). After a five day incubation, 40 μL of buffer containing 66 mM Mes pH 6.5, 8 mM CaCl2, 0.5% NP-40 and 100 μM neuramidase substrate (2′-(4-Methylumbelliferyl)-α-D-N-acetylneuraminic acid sodium salt hydrate, Sigma Aldrich, St. Luis, Mo.) is added to cells. Fluorescence of the product of hydrolysis is read using excitation at 360 nm and emission at 450 nm after a 1 hour incubation at 37° C. EC50 values are calculated by non-linear regression of multiple data sets.

Influenza RNA polymerase = Influenza RNA polymerase (Influenza A virus, UniProt P03431); test: Influenza RNA Polymerase Inhibition (IC50) Assay; format: biochemical; settings: virus lysate of Influenza A/PR/8/34 (H1N1), 30° C. for 90 minutes, α-33P labeled NTP incorporation
Procedure: Influenza RNA Polymerase Inhibition (IC50) Assay
Influenza A/PR/8/34 (H1N1) purified virus was obtained from Advanced Biotechnologies Inc. (Columbia, Md.) as suspension in PBS buffer. Virions were disrupted by exposure to an equal volume of 2% Triton X-100 for 30 minutes at room temperature in a buffer containing 100 mM Tris-HCl, pH 8, 200 mM KCl, 3 mM dithiothreitol [DTT], 10% glycerol, 10 mM MgCl2, 2 U/mL RNasin Ribonuclease Inhibitor, and 2 mg/mL Lysolechithin type V (Sigma, Saint Louis, Mo.). The virus lysate was stored at −80° C. in aliquots.
The concentrations refer to final concentrations unless mentioned otherwise. Nucleotide analog inhibitors were serially diluted 3 fold in water and added to reaction mix containing 10% virus lysate (v/v), 100 mM Tris-HCl (pH 8.0), 100 mM KCl, 1 mM DTT, 10% glycerol, 0.25% Triton-101 (reduced), 5 mM MgCl2, 0.4 U/mL RNasin, and 200 μM ApG dinucleotide primer (TriLink, San Diego Calif.). […]
Reactions were incubated at 30° C. for 90 minutes then spotted onto DE81 filter paper. Filters were air dried, washed 0.125 M Na2HPO4 (3×), water (1×), and EtOH (1×), and air dried before exposed to Typhoon phosphor imager and radioactivity was quantified on a Typhoon Trio (GE Healthcare, Piscataway N.J.). […]

Structure (SMILES) | EC50 [1] [µM] | EC50 [2] [µM] | IC50 (Influenza RNA polymerase) [µM] | EC50 ([1]; Influenza A virus, Epithelial cell, 120 h) [µM] | EC50 ([2]; Influenza B virus, Epithelial cell, 120 h) [µM]
Nc1nc(N)c2ncc(C3OC(CO)C(O)C3F)n2n1 [Compound 6, (2S,3S,4R,5R)-5-(2,4-diaminoimidazo[1,2-f][1,2,4]triazin-7-yl)-4-fluoro-2-(hydroxymethyl)tetrahydrofuran-3-ol] | 21 | 51 |  |  | 
Nc1ncnn2c([C@H]3O[C@@H](CO)[C@H](O)[C@H]3F)cnc12 [Compound 10, (2S,3S,4R,5R)-5-(4-aminoimidazo[1,2-f][1,2,4]triazin-7-yl)-4-fluoro-2-(hydroxymethyl)tetrahydrofuran-3-ol] | 0.9 | 0.9 |  |  | 
Nc1nn2c([C@@H]3O[C@H](COP(=O)(O)OP(=O)(O)OP(=O)(O)O)[C@@H](O)[C@H]3F)cnc2c(=O)[nH]1 [Compound 8, ((2R, 3R, 4R, 5S)-5-(2-amino-4-oxo-3,4-dihydroimidazo[1,2-J][1,2,4]triazin-7-yl)-4-fluoro-3-hydroxy-3-hydroxytetrahydrofuran-2-yl)methyl tetrahydrogen triphosphate] |  |  | 2.8 |  | 
Nc1nn2c([C@@H]3O[C@H](CO)[C@@H](O)[C@@H]3F)cnc2c(=O)[nH]1 [Compound 7] | 27 | 37 |  |  | 
CCOc1nc(N)nn2c([C@@H]3O[C@H](CO)[C@@H](O)[C@H]3F)cnc12 [Compound 18, (2R,3R,4R,5S)-5-(2-amino-4-ethoxyimidazo[1,2-f][1,2,4]triazine-7-yl)-4-fluoro-2-(hydroxymethyl)tetrahydrofuran-3-ol] | > 200 | > 200 |  |  | 
COc1nc(N)nn2c([C@@H]3O[C@H](CO)[C@@H](O)[C@H]3F)cnc12 [Compound 19, (2R,3R,4R,5S)-5-(2-amino-4-methoxyimidazo[1,2-f][1,2,4]triazin-7-yl)-4-fluoro-2-(hydroxymethyl)tetrahydrofuran-3-ol] |  |  |  | 30 | 36
Nc1nc(F)nn2c([C@@H]3O[C@H](CO)[C@@H](O)[C@H]3F)cnc12 [Compound 12, (2R,3R,4R,5S)-5-(4-amino-2-fluoroimidazo[1,2-f][1,2,4]triazin-7-yl)-4-fluoro-2-(hydroxymethyl)tetrahydrofuran-3-ol] | > 100 | > 100 |  |  | 
